Patent US6855729B2, “Treatment of fibromyalgia and related fatigue syndromes using antagonists or partial agonists of 5HT1a receptors” (priority 2001, dated 2005)

Columns and labels:
[1] = tested on: patients with fibromyalgia; assay: Open label treatment study in fibromyalgia / chronic fatigue syndrome; type: in vivo, human; conditions: 2.5 mg three times daily
Method: Five patients with fibromyalgia (ACR criteria) who also met criteria for chronic fatigue syndrome (CDC criteria) gave informed consent to take part in this open label treatment study. All were treated with pindolol 2.5 mg three times daily.

5HT1a receptor = molecular target: T1, 5HT1a receptor (Homo sapiens, UniProt P08908); assay: Buspirone challenge, prolactin release; type: in vivo; conditions: buspirone 30 mg orally; for Prolactin AUC (mean±SD): blood 0-180 min
T1 construct: Buspirone (30 mg) or matching placebo was administered orally at 0900 h (Time 0); from tissue; host or cells: living human subjects (central receptors)
T1 sequence (P08908 1-422): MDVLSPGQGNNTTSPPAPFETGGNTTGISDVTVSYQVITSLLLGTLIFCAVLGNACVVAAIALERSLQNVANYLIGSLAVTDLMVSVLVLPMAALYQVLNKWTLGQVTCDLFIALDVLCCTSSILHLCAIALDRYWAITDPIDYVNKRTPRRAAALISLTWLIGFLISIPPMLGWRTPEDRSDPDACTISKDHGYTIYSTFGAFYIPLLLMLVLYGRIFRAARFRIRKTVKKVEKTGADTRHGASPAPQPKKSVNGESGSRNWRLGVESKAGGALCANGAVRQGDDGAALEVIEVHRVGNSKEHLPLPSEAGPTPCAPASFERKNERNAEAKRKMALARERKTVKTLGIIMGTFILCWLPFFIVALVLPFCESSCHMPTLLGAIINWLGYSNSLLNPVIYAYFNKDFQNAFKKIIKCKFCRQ
Method: A total of 12 subjects (9 female/3 male) and 12 healthy comparison subjects (9 female/3 male) gave fully informed consent to take part in the study. […] All patients fulfilled criteria for both fibromyalgia (ACR criteria) and chronic fatigue syndrome (CDC criteria). […] Buspirone (30 mg) or matching placebo was administered orally at 0900 h (Time 0). Blood was taken at 0, 30, 60, 90, 120 and 180 min.

SMILES | Time to significant improvement in symptoms ([1]; from commencing treatment) [days] | Effect on symptoms, energy levels and general wellbeing ([1]; open label) | Patients showing a significant improvement in symptoms ([1]; open label, five patients with fibromyalgia and chronic fatigue syndrome) | Prolactin levels after challenge (5HT1a receptor; all subjects (patients and healthy)) | Prolactin AUC (mean±SD) (5HT1a receptor; healthy subjects) | Prolactin AUC (mean±SD) (5HT1a receptor; patients with fibromyalgia and chronic fatigue syndrome)
CC(C)NCC(O)COc1cccc2[nH]ccc12 (racemic) [pindolol] | ≤ 10 | reduction in all symptoms and an increase in energy levels and general wellbeing | Four of 5 |  |  | 
O=C1CC2(CCCC2)CC(=O)N1CCCCN1CCN(c2ncccn2)CC1 [Buspirone] |  |  |  | rose in all subjects | 27±35 | 49±28
